Assay results taken from patent EP1382597A2, “Steroid receptor modulator compounds and methods” (LIGAND PHARMACEUTICALS, INC., priority 1994, dated 1996).
Read-outs that look alike come from different tables or passages of the source.

Assays:
GR = biological target: T1, GR (Homo sapiens, UniProt P04150); assay: Co-transfection assay, GR antagonist activity; format: cell-based; conditions: for Emax: CV-1, read-out: GR Antagonist CV-1 Cells Efficacy (%)
T1 construct: expressed in transfected cells; host or cells: CV-1 cells, transient transfection
T1 sequence (P04150 1-777): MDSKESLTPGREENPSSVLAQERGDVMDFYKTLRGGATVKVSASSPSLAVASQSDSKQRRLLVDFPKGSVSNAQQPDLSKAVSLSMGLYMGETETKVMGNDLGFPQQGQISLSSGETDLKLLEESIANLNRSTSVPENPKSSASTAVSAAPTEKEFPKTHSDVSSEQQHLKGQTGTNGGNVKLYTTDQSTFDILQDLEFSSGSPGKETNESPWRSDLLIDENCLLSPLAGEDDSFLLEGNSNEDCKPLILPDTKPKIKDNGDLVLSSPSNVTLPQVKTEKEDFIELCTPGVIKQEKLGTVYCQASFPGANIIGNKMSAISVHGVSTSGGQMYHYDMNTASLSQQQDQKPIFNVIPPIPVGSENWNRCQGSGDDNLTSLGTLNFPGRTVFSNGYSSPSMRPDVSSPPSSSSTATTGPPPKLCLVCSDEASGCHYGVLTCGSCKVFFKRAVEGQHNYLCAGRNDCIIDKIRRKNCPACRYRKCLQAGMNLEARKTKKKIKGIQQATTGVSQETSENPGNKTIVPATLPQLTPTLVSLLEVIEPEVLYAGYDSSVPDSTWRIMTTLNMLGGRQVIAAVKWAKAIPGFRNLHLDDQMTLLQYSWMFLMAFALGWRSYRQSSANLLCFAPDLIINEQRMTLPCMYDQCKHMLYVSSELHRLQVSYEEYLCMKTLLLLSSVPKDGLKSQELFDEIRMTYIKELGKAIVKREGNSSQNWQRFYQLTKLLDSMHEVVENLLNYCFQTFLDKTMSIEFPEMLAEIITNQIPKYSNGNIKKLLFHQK

ER [1] = biological target: T2, ER (Homo sapiens, UniProt P03372); assay: Co-transfection assay, ER agonist activity; format: cell-based; conditions: for Emax: CV-1, read-out: ER Agonist CV-1 Cells Efficacy (%)
T2 construct: expressed in transfected cells; host or cells: CV-1 cells, transient transfection, with MTV-ERE5-LUC reporter

ER [2] = biological target: T2, ER; assay: Co-transfection assay, ER antagonist activity; format: cell-based; conditions: for ER Antagonist CV-1 Cells Efficacy (%): percent maximal inhibition, estradiol at its EC50
MR = biological target: T3, MR (Homo sapiens, UniProt P08235); assay: Co-transfection assay, MR antagonist activity; format: cell-based; conditions: for Emax: CV-1, read-out: MR Antagonist CV-1 Cells Efficacy (%)
T3 construct: expressed in transfected cells; host or cells: CV-1 cells, transient transfection
T3 sequence (P08235 1-984): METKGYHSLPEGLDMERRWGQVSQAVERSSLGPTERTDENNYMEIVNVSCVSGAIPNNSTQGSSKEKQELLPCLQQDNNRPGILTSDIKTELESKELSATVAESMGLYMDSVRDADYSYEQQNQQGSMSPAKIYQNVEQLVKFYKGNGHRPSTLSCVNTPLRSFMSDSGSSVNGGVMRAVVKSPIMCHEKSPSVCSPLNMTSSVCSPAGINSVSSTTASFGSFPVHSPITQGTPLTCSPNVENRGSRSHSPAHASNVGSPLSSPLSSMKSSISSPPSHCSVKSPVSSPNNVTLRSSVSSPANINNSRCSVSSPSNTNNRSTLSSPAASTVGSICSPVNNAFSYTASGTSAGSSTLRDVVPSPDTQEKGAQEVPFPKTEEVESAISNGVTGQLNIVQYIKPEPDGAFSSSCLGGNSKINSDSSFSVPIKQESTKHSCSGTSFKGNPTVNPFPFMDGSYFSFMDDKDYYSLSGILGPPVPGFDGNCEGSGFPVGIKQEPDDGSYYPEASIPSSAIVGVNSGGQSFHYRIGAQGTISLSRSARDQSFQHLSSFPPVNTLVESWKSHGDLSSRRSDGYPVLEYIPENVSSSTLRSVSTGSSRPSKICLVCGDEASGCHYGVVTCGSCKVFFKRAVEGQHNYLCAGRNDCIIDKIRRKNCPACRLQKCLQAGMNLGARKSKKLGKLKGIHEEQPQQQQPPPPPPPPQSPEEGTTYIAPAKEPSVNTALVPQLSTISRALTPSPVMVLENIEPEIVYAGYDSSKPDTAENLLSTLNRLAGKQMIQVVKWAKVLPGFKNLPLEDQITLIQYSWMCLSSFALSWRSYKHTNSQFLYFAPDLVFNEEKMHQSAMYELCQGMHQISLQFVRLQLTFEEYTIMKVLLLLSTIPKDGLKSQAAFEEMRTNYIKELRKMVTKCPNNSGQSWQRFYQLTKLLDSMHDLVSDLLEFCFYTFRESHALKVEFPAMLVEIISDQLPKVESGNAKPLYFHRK

PR = assay: Uterine wet weight assay (PR agonist effectiveness); format: in vivo, Sprague-Dawely rats; conditions: for effect on uterine wet weight: co-administered with estrone, doses of 0.3 mg, 1.0 mg, and 3.0 mg/rat
Excerpt: J. Obstet. […] R.I. Dorfman, Academic Press, New York, New York, pp101-130 (1969), the disclosures of which are herein incorporated by reference. Four to five week old, ovariectomized, Sprague-Dawely rats (Harlan-Sprague-Dawely, Indianapolis, IN) were obtained 1 week after surgery and allowed to acclimate for an additional week after shipment.

human PR-B [3] = biological target: T4, human PR-B (Homo sapiens, UniProt P06401); assay: Co-transfection assay, PR agonist activity; format: cell-based; conditions: for Emax: CV-1, read-out: PR Agonist CV-1 Cells Efficacy (%);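 on all read-outs here: CV-1 cells (African green monkey kidney) co-transfected with receptor plasmid and hormone-responsive firefly luciferase reporter, agonism read as compound-dependent rise in luciferase signal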
T4 construct: expressed in transfected cells; host or cells: CV-1 cells (African green monkey kidney fibroblasts), transient transfection
T4 sequence (P06401 1-933): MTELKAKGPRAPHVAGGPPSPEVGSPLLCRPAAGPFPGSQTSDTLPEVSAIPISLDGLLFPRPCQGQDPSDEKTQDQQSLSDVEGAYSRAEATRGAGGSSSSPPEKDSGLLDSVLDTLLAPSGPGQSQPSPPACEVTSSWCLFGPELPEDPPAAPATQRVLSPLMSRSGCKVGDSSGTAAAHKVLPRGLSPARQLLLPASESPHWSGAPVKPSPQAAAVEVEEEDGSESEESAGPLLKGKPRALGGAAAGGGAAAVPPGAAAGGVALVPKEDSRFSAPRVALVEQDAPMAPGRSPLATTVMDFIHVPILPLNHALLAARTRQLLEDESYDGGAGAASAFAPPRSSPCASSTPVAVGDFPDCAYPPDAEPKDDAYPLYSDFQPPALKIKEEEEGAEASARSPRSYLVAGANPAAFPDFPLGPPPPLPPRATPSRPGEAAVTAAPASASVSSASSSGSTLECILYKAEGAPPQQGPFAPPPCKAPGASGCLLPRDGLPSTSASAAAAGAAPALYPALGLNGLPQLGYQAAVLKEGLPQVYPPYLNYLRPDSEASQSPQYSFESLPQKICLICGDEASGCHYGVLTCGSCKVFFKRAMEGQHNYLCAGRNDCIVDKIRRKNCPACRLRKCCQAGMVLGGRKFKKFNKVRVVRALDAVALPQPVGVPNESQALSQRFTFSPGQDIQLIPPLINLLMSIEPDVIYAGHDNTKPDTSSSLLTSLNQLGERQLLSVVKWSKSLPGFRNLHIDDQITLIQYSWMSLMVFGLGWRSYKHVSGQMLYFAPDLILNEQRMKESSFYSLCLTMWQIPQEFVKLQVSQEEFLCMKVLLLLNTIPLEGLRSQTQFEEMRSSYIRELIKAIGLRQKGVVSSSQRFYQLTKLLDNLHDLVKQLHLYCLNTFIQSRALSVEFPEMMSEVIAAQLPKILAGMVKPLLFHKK

human PR-B [4] = biological target: T4, human PR-B; assay: Co-transfection assay, PR antagonist activity; format: cell-based; conditions: for Emax: CV-1, read-out: PR Antagonist CV-1 Cells Efficacy (%);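 on all read-outs here: monkey kidney fibroblasts co-transfected with receptor expression plasmid and hormone-responsive luciferase reporter, antagonism read as reduced luciferase signal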
AR = biological target: T5, AR (Homo sapiens, UniProt P10275); assay: Co-transfection assay, AR antagonist activity; format: cell-based
T5 construct: expressed in transfected cells; host or cells: CV-1 cells, transient transfection
T5 sequence (P10275 whole entry): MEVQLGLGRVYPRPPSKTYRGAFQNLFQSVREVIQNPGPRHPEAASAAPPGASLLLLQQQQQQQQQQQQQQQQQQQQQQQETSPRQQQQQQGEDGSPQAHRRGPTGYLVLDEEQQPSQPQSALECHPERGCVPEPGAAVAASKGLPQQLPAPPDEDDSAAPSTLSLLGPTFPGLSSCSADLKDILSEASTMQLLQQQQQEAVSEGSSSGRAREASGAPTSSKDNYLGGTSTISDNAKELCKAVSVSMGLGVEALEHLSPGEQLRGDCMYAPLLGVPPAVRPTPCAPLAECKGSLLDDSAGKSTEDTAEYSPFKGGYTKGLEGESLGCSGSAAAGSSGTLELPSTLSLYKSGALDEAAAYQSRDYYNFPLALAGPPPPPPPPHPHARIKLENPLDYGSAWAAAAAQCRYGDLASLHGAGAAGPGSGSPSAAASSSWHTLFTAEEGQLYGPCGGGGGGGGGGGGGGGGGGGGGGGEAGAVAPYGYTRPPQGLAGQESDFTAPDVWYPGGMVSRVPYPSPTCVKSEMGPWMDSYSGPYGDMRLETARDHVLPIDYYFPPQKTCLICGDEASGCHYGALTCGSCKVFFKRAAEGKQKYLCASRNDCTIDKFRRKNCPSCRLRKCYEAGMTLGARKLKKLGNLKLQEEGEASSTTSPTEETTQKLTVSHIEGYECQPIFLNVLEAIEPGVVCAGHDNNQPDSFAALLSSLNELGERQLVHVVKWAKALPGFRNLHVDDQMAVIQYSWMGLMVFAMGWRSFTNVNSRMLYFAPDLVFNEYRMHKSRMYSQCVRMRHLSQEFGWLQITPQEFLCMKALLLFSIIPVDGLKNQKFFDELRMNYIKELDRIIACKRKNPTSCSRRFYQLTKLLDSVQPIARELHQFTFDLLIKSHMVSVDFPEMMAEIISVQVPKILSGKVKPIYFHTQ

T2 sequence (P03372 whole entry): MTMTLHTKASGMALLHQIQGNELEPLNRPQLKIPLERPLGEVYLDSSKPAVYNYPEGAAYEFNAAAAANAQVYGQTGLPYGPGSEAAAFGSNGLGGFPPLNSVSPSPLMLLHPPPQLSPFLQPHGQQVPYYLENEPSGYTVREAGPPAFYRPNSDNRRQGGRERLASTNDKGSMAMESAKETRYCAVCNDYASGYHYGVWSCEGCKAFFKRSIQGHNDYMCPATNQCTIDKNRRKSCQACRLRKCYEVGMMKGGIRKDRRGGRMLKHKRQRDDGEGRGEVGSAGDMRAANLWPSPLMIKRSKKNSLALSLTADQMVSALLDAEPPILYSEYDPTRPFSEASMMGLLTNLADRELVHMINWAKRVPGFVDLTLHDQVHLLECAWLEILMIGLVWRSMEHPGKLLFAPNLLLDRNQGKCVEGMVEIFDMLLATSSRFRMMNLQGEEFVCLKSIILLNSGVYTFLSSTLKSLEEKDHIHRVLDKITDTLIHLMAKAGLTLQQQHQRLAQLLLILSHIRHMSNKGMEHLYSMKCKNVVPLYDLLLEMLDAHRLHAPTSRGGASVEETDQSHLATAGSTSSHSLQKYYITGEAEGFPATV

Compound: 8-Fluoro-1,2-dihydro-2,2,4-trimethylindeno[1,2-g]quinoline [Compound 124]
- IC50 (GR; Table 5 overall potency, co-transfection assay, read-out: GR Potency Antag): > 10 µM
- EC50 (ER [1]; Table 5 overall potency, co-transfection assay, read-out: ER Potency Agon): 2.1 µM
- IC50 (ER [2]; Table 5 overall potency, co-transfection assay, read-out: ER Potency Antag): > 10 µM
- IC50 (MR; Table 5 overall potency, co-transfection assay, read-out: MR Potency Antag): > 10 µM

Compound: CCCCN(C)C(=O)CCCCCCCCCC[C@@H]1Cc2cc(O)ccc2[C@H]2CC[C@]3(C)[C@@H](O)CC[C@H]3[C@H]12 [ICI 164, N-butyl-3,17-dihydroxy-N-methyl-(7-alpha, 17-beta)-estra-1,3,5(10)-triene-7-undecanamide, reference compound]
- Emax (ER [1]): < 20%
- ER Antagonist CV-1 Cells Efficacy (%) (ER [2]): 99%

Compound: CC(C)(O)C(=O)Nc1ccc([N+](=O)[O-])c(C(F)(F)F)c1 [Flut]
- EC50 (ER [1]): > 10 µM
- IC50 (ER [2]): > 10 µM

Compound: CC(=O)O[C@]1(C(C)=O)CC[C@H]2[C@@H]3C[C@H](C)C4=CC(=O)CC[C@]4(C)[C@H]3CC[C@@]21C [MPA, medroxyprogesterone acetate, reference compound]
- effect on uterine wet weight (PR): significantly decreased the uterine wet weight

Compound: CC1=CC(C)(C)Nc2ccc3c(c21)C(c1ccc(C)cc1)Oc1ccccc1-3 (racemic) [Compound 167, (R/S)-1,2-Dihydro-2,2,4-trimethyl-5-(4-methylphenyl)-5H-chromeno[3,4-f]quinoline]
- Emax (GR): 96%
- Emax (MR): 61%

Compound: C[C@]12CC[C@@H]3c4ccc(O)cc4CC[C@H]3[C@@H]1CCC2=O [estrone, reference compound]
- Mean Uterine Wet Weight (PR; estrone 10 µg/day subcutaneous alone, three days, ovariectomized rats): 205 mg
- increase of uterine wet weight over control treated animals (PR; estrone alone): 4 fold

Compound: CC#C[C@]1(O)CC[C@H]2[C@@H]3CCC4=CC(=O)CCC4=C3[C@@H](c3ccc(N(C)C)cc3)C[C@@]21C [RU486, (11beta, 17beta)-11-[4-(dimethylamino)phenyl]-17-hydroxy-17-(1-propynyl)estra-4,9-dien-3-one, reference compound]
- Emax (human PR-B [3]): < 20%
- Emax (GR): 100%
- Emax (MR): 77%

Compound: CCCCC1Oc2ccc(F)cc2-c2ccc3c(c21)C(C)=CC(C)(C)N3 (racemic) [Compound 210, (R/S)-5-Butyl-9-fluoro-1,2-dihydro-2,2,4-trimethyl-5H-chromeno[3,4-f]quinoline]
- effect on uterine wet weight (PR): decreased by approximately half

Compound: C=C1CC(C)(C)Nc2ccc3c(c21)C(c1cccc(F)c1)Oc1ccccc1-3 (racemic) [Compound 192, (R/S)-5-(3-Fluorophenyl)-1,2,3,4-tetrahydro-2,2-dimethyl-4-methylidene-5H-chromeno[3,4-f]quinoline]
- EC50 (human PR-B [3]): > 10 µM
- Emax (GR): 81%
- EC50 (ER [1]): > 10 µM
- Emax (ER [1]): < 20%
- IC50 (ER [2]): 0.195 µM
- ER Antagonist CV-1 Cells Efficacy (%) (ER [2]): 80%
- IC50 (human PR-B [4]): 0.089 µM
- IC50 (AR): 0.079 µM
- Emax (MR): 70%

Compound: CC1=CC(C)(C)Nc2ccc3c(c21)C(c1ccccc1)Oc1ccccc1-3 (racemic) [Compound 161, (R/S)-1,2-Dihydro-2,2,4-trimethyl-5-phenyl-5H-chromeno[3,4-f]quinoline]
- Emax (human PR-B [3]): 47%
- Emax (GR): 97%
- Emax (human PR-B [4]): 75%
- Emax (MR): 58%

Compound: CC1=CC(C)(C)Nc2ccc3c(c21)C(c1cccc(C(F)(F)F)c1)Oc1ccccc1-3 (racemic) [Compound 195, (R/S) 1,2-Dihydro-2,2,4-trimethyl-5-[3-(trifluoromethyl)phenyl]-5H-chromeno[3,4-f]quinoline]
- Emax (human PR-B [3]): 89%
- Emax (GR): 96%
- Emax (ER [1]): 90%
- IC50 (ER [2]): 4.41 µM
- ER Antagonist CV-1 Cells Efficacy (%) (ER [2]): 68%
- Emax (human PR-B [4]): < 20%
- IC50 (AR): 0.47 µM
- Emax (MR): 47%

Compound: CC(=O)S[C@@H]1CC2=CC(=O)CC[C@]2(C)[C@H]2CC[C@@]3(C)[C@@H](CC[C@@]34CCC(=O)O4)[C@H]12 [Spir, 7-alpha-[acetylthio]-17-alpha-hydroxy-3-oxopregn-4-ene-21-carboxylic acid gamma-lactone, reference compound]
- Emax (GR): 80%
- Emax (MR): 96%

Compound: CC1=CC(C)(C)Nc2ccc3c(c21)C(c1ccsc1)Oc1ccccc1-3 (racemic) [Compound 170, (R/S)-1,2-Dihydro-2,2,4-trimethyl-5-(thiophen-3-yl)-5H-chromeno[3,4-f]quinoline]
- EC50 (human PR-B [3]): 0.073 µM
- Emax (GR): 94%
- IC50 (ER [2]): 0.58 µM
- ER Antagonist CV-1 Cells Efficacy (%) (ER [2]): 78%
- IC50 (human PR-B [4]): 0.145 µM
- IC50 (AR): 0.29 µM
- Emax (MR): 84%
